In patent US4983601A, “Benzo(b)pyrrolobenzodiazepines” (Hoechst-Roussel Pharmaceutical Inc., priority 1989, dated 1991):

System: phenyl-para-quinone induced writhes
Assay: phenyl-para-quinone writhing assay in mice (analgetic activity)
Format: in vivo
Settings: subcutaneous (sc); for Analgetic Activity, percent inhibition of writhing: screening dose of 20 mg/kg
Protocol: Exptl. Biol. Med., 95, 729 ([…])]. Presented in the Table is the analgetic activity of representative compounds of the invention and a standard, expressed as the estimated subcutaneous dose at which the mice experience a 50% reduction in phenyl-para-quinone induced writhes, i.e., the ED50 -value, or the percent inhibition of writhing caused by a screening dose of 20 mg/kg of body weight administered subcutaneously (sc).

| Structure (SMILES) | Analgetic Activity, percent inhibition of writhing [%] | Analgetic Activity, ED50 (estimated subcutaneous dose at which the mice experience a 50% reduction in phenyl-para-quinone induced writhes) [mg/kg] |
| --- | --- | --- |
| O=c1n(CCc2ccccc2)nc2n1-c1ccccc1N1CCc3cccc-2c31 [1,2-Dihydro-7-(2-phenylethyl)benzo[b]pyrrolo[3,2,1-jk][1,2,4]triazolo[4,3-d][1,4]benzodiazepin-8(7H)-one] | 62 |  |
| O=c1n(CCCc2noc3cc(F)ccc23)nc2n1-c1cc(Br)ccc1N1CCc3cccc-2c31 [11-Bromo-1,2-dihydro-7-[3-(6-fluoro-1,2-benzisoxazol-3-yl)-1-propyl]benzo[b]pyrrolo[3,2,1-jk][1,2,4]triazolo[4,3-d][1,4]benzodiazepin-8(7H)-one] | 54 |  |
| CN(C)Cc1nnc2n1-c1cc(Br)ccc1N1CCc3cccc-2c31 [11-Bromo-1,2-dihydro-8-(dimethylamino)methylbenzo[b]pyrrolo[3,2,1-jk][1,2,4]triazolo[4,3-d][1,4]benzodiazepine] |  | 3.55 |
| Brc1ccc2c(c1)-n1nnnc1-c1cccc3c1N2CC3 [11-Bromo-1,2-dihydrobenzo[b]pyrrolo[3,2,1-jk]tetrazolo[1,5-d][1,4]benzodiazepine] | 56 |  |
| Cc1ccc2c(c1)n1c(CN(C)C)nnc1c1cccc3ccn2c31 [11-Methyl-8-(dimethylamino)methylbenzo[b]pyrrolo[3,2,1-jk][1,2,4]triazolo[4,3-d][1,4]benzodiazepine] | 57 |  |
| CCC(=O)O[C@](Cc1ccccc1)(c1ccccc1)[C@H](C)CN(C)C [propoxyphene, reference compound] |  | 3.9 |
